The source of these data is ChEMBL document CHEMBL1134603 (J Med Chem, 2001).

Test [1] deals with T1, Human immunodeficiency virus type 1 reverse transcriptase (Human immunodeficiency virus 1, UniProt Q72547). The test can be described thus: Inhibition of HIV-1 reverse transcriptase at 37 degree Centigrade.
Test [2] concerns the target T1, Human immunodeficiency virus type 1 reverse transcriptase. Briefly: Inhibition of HIV-1 reverse transcriptase at 25 degree Centigrade.

Turning to `Cc1c(Sc2ccccc2)n(C)c(=O)[nH]c1=O`, the EC50 in test [1] was above 150 µM.
The same measure, in the same setting: for `Cc1c(Oc2ccccc2)n(COCCO)c(=O)[nH]c1=O` the value was 85 µM.
On the same count and under the same terms, for `CCOCn1c(Cc2ccccc2)c(C(C)C)c(=O)[nH]c1=O` [EMIVIRINE] the value was 0.004 µM; for `Cc1c(Sc2ccccc2)[nH]c(=O)[nH]c1=O`, above 250 µM; for `Cc1c(Sc2ccccc2)n(COCCO)c(=O)[nH]c1=O` [HEPT], 7 µM.
As to `CCc1ccnc2c1N(C)C(=O)c1cccnc1N2CC`, the midpoint of inhibition in test [2], the IC50, lay at 0.11 µM.
`Cc1c(Cc2ccccc2)n(COCCO)c(=O)[nH]c1=O`: in test [1], the EC50 turned out to be 23 µM.
